Test results taken from patent US20200338064A1, “HIGH CONCENTRATION LOCAL ANESTHETIC FORMULATIONS” (priority 2007, published 2020).

Test: Solubility and compatibility of lidocaine and lidocaine HCl at 40% w/w in solvent blends
Assay type: physicochemical
Details: two weeks at accelerated conditions versus initial
Experimental: The solubility and compatibility of lidocaine and lidocaine HCl in solvents typically used in topical pharmaceutical products was assessed in order to direct the formulation development efforts.
Initially, the solubility of lidocaine and lidocaine hydrochloride was evaluated in single solvents with varying lipophilicity. […] Based on the single solvent data, a compatibility study was initiated to evaluate the chemical stability of the drug at a concentration of 40% w/w in a variety of solvent blends that would form the base of potential prototype gel or cream formulations.

CCN(CC)CC(=O)Nc1c(C)cccc1C [lidocaine]
Physical appearance and chemical compatibility in solvent blends: retained their physical appearance
